Test results taken from patent publication US20120270237A9, “METHODS FOR THE IDENTIFICATION OF KINASE INTERACTING MOLECULES AND FOR THE PURIFICATION OF KINASE PROTEINS” (Cellzone AG, priority 2009, published 2012).

Experiments:
CDC2 = CDC2 (Homo sapiens, UniProt P06493); test: Kinobeads competition binding, L-363 cell lysate; design: capturing and identification of kinases from L-363 cell lysate; endogenous in cells; host or cells: L-363 cells (DSMZ ACC49), pre-treated with MG132; details: 10 μM free compound, L-363 lysate
Sequence of CDC2 (P06493 whole entry): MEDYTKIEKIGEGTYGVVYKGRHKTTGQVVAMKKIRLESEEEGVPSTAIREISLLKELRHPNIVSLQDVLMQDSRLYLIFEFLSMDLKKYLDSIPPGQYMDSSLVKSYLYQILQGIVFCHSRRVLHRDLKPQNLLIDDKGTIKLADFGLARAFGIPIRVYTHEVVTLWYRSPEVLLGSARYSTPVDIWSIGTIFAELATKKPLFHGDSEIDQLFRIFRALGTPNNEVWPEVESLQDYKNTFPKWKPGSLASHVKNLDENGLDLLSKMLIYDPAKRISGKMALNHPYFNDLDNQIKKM
Experimental: (§1) To one aliquot of cell lysate 10 μM of the free compound (FIG. 3, CZC31326) was added and allowed to bind to proteins in the lysate. Then the affinity matrix with the immobilized compound was added to capture proteins that were not interacting with the previously added free compound. Beads were separated from the lysate and bead bound proteins were eluted in SDS sample buffer and subsequently separated by SDS-Polyacrylamide gel electrophoresis (FIG. 8). Suitable gel bands were cut out and subjected to in-gel proteolytic digestion with trypsin. The second lysate aliquot was processed identically, however no free compound was added (DMSO solvent control). Peptides originating from samples 1 and 2 were labeled with iTRAQ reagents (iTRAQ 114 and iTRAQ 117) and the combined samples were analyzed with a nano-flow liquid chromatography system coupled online to a tandem mass spectrometer (LC-MS/MS) experiment followed by iTRAQ reporter ion quantification in the MS/MS spectra as described in Example 2.
(§2) For this experiment the human plasma cell leukaemia line L-363 was used (German Collection of Microorganisms and Cell Cultures, DSMZ number ACC49, Braunschweig, Germany). Cells were treated for three hours with 20 μM of the proteasome inhibitor MG132 (Z-Leu-Leu-Leu-al, Sigma C2211) prior to cell harvesting.

CK2a1 = CK2a1 (Homo sapiens, UniProt P68400); test: Kinobeads competition binding, L-363 cell lysate; design: capturing and identification of kinases from L-363 cell lysate; endogenous in cells; host or cells: L-363 cells (DSMZ ACC49), pre-treated with MG132; details: 10 μM free compound, L-363 lysate
Sequence of CK2a1 (P68400 whole entry): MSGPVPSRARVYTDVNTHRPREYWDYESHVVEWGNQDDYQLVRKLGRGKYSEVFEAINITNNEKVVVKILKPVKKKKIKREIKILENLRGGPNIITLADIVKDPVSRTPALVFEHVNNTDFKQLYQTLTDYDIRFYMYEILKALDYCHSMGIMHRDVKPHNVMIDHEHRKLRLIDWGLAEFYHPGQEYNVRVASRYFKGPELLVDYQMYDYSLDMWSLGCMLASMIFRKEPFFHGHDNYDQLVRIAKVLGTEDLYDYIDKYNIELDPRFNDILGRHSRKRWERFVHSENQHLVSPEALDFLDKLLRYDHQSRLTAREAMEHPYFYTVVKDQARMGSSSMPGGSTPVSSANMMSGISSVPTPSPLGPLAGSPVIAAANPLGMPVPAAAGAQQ
Experimental: as §1, §2

YES = YES (Homo sapiens, UniProt P07947); test: Kinobeads competition binding, HeLa Placenta lysate mix; design: kinases from mixed HeLa placenta lysates; endogenous in cells; host or cells: mixed lysate of HeLa cells and placenta tissue; details: 10 μM free compound
Sequence of YES (P07947 whole entry): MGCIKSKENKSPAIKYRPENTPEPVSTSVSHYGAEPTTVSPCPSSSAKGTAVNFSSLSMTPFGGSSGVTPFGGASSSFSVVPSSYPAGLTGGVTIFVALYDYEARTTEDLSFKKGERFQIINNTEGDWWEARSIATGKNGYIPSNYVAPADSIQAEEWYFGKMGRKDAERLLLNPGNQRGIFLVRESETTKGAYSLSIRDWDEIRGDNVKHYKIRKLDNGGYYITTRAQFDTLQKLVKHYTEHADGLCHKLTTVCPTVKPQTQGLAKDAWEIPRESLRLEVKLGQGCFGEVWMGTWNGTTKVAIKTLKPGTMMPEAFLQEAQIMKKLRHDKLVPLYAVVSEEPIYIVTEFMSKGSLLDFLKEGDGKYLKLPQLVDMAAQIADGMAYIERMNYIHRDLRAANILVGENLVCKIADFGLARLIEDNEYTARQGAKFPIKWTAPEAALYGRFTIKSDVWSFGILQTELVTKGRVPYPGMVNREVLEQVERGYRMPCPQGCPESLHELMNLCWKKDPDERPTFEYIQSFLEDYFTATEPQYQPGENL
Experimental: as §1, with “10).” for “8).”

TGFbR1 = TGFbR1 (Homo sapiens, UniProt P36897); test: as above; design: kinases from mixed HeLa placenta lysates; endogenous in cells; host or cells: mixed lysate of HeLa cells and placenta tissue; details: 10 μM free compound
Sequence of TGFbR1 (P36897 34-503): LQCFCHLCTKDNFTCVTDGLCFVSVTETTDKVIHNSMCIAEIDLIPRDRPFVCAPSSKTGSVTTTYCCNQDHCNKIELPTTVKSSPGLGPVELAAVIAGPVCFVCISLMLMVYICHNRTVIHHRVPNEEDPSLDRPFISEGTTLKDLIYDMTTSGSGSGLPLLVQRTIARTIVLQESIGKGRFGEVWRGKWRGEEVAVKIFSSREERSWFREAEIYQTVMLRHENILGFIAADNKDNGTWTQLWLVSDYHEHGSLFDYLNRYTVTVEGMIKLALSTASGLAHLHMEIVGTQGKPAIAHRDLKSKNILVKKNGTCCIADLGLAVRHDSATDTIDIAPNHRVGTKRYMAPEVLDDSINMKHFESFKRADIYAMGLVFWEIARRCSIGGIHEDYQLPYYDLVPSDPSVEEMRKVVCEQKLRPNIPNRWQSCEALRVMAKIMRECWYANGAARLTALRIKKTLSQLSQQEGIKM
Experimental: as §1, with “10).” for “8).”

ULK3 = target: T1, ULK3 (Homo sapiens, UniProt Q6PHR2); test: as above; design: kinases from mixed HeLa placenta lysates; endogenous in cells; host or cells: mixed lysate of HeLa cells and placenta tissue; details: 10 μM free compound
T1 sequence (Q6PHR2 1-472): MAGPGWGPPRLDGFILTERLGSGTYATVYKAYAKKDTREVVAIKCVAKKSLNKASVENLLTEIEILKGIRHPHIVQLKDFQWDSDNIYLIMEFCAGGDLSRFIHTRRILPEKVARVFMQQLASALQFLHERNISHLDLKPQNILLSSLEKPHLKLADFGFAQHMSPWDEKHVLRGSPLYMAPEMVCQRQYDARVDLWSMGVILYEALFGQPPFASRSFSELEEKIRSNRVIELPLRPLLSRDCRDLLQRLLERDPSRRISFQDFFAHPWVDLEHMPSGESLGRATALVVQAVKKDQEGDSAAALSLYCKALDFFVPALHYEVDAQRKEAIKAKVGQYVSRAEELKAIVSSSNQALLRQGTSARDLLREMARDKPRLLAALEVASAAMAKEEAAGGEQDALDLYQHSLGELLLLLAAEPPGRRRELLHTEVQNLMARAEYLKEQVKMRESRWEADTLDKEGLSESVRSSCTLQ
Experimental: as §1, with “10).” for “8).”

TEC = target: T2, TEC (Homo sapiens, UniProt P42680); test: as above; design: kinases from mixed HeLa placenta lysates; endogenous in cells; host or cells: mixed lysate of HeLa cells and placenta tissue; details: 10 μM free compound
T2 sequence (P42680 1-631): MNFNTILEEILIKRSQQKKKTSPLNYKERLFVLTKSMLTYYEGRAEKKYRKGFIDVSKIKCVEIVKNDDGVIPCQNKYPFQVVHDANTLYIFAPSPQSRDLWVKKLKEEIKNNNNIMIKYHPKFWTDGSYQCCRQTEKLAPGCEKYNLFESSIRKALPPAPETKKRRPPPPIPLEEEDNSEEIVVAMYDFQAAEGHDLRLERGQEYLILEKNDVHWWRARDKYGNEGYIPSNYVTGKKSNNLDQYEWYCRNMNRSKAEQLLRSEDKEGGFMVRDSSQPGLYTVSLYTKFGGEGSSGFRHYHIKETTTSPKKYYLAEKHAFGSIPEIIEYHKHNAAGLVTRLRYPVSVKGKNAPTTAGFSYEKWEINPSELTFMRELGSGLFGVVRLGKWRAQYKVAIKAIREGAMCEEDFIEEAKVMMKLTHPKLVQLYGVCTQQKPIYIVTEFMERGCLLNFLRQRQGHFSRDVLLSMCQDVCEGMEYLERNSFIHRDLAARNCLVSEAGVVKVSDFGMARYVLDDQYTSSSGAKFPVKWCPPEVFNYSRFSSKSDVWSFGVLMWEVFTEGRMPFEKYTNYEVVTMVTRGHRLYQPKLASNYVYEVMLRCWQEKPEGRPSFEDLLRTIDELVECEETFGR
Experimental: as §1, with “10).” for “8).”

inhibition at 10 µM (CDC2): 95.1% | inhibition at 10 µM (CK2a1): 97.9% | inhibition at 10 µM (YES): 90.3% | inhibition at 10 µM (TGFbR1): 90.8% | Competition % (ULK3): 94.6% | inhibition at 10 µM (TEC): 89.2%
Structure (SMILES): CS(=O)(=O)Nc1ccccc1Nc1nc(Nc2cccc(OCCN)c2)ncc1Cl [CZC31326, N-(2-(2-(3-(2-aminoethoxy)phenylamino)-5-chloropyrimidin-4-ylamino)phenyl)methanesulfonamide]
